Measurements as given in US20250101104A1, “BISPECIFIC MOLECULE WITH TUNABLE AFFINITY TO A TARGETED ANTIGEN” (MABSWITCH INC., priority 2022, published 2025).

How the values were obtained:
[1] = biological target: T1, Human CD3 epsilon&CD3 gamma Heterodimer Protein (Homo sapiens, UniProt P07766); assay: Bispecific functionality ELISA (captured CD3, detection with biotinylated CD33 Fc-fusion); format: binding; conditions: affinity to the CD3 antigen
T1 construct: purchased Biorbyt Ltd, Cambridge, United Kingdom
Experimental: Bispecific functionality is tested in an ELISA using soluble Human CD3 epsilon&CD3 gamma Heterodimer Protein (Biorbyt Ltd, Cambridge, United Kingdom) that is captured to the ELISA plate surface and an Fc-fusion of CD33 that carried an AviTag™ (biotinylated) (BPS Bioscience, Inc., San Diego, USA) detected by HRP conjugated streptavidin (BPS Bioscience, Inc., San Diego, USA). Dilution curves of the protein A purified bispecific scFv-Fc constructs are compared. For control, a bispecific scFv-Fc construct wherein the linker between the OKT3 variable heavy chain sequence to the OKT3 variable light chain sequence is a non-switchable variant (GGGGSGGGGSGG GGS (SEQ ID NO: 365)) is constructed, produced and purified as described above.

[2] = test system: CD3 positive Jurkat cells; assay: Switch activity on living cells, flow cytometry; format: cell-based; conditions: incubated with the switch peptide variant SEQ ID NO:2
Experimental: The bispecific switchable anti-CD3/antiCD33 Fc fusion protein product MS42-13 is further tested for switch activity in the presence and absence of switch linkers on living cells using flow cytometry. For the cytofluorometry analysis, CD3 positive Jurkat cells (ATCC, Clone E6-1), cultivated in suspension culture as described by the provider, are seeded in FACS tubes and washed with 3 mL PBS supplemented with 2 mM EDTA and 2% (v/v) FCS (centrifugation for 5 min at 500×g and 4-C). Cells are incubated with […] of various dilutions of scFv-Fc bispecific antibody constructs (between 10 ng/mL and […]) for 1 h on ice. Cells are washed two times with 3 mL PBS (centrifugation for 5 min at 500×g and 4-C) and are incubated with 100 μL Fc-fusion of CD33 that carried an AviTag™ (biotinylated) (BPS Bioscience, Inc., San Diego, USA) (Fc-specific) for 1 h on ice in the dark in either the presence or absence of the switch peptides (1 μM or 10 μM). […] A minimum of 10^4 events are analyzed per sample. Analysis is performed with CXP analysis 2.2 software (Beckman Coulter, Fullerton, CA) and Mean Fluorescence Intensities (MFI) are determined using Flowjo™ software (Treestar).

[3] = mice; cited from earlier work
[4] = test system: circulating CD123^+ cells; conditions: cited from earlier work
[5] = test system: TF-1 AML cell lines; conditions: cited from earlier work
[6] = test system: CD123+KG-1a; conditions: cited from earlier work

T1 sequence (P07766 23-126 limits assumed): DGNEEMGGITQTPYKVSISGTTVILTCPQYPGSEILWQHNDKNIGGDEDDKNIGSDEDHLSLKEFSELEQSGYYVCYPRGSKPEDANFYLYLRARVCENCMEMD
T1 sequence (P09693 23-116 partner limits assumed): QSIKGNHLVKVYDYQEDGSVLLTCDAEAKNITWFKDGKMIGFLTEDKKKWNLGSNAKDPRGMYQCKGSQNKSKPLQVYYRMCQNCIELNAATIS

drop in EC50 compared to the construct with the non-switchable wild type Gly-Ser linker [1] [fold] | Substance | increase of half-maximal binding compared to the construct with the non-switchable linker (SEQ ID NO:365) [2] [fold] | serum half-life [3] [h] | T cell activation ([4]; cynomolgus monkeys) | depletion of circulating CD123+ cells including basophils and plasmacytoid dendritic cells ([4]; within 1 hour of administration) | EC50 of T cell-mediated killing [5] [ng/mL] | EC50 of T cell-mediated killing [6] [ng/mL]
24.6 | MS42-13: switchable bispecific anti-CD3/anti-CD33 scFv-Fc fusion: OKT3 scFv with calmodulin switch linker, gemtuzumab scFv, knob-into-hole Fc (SEQ ID NO:366, 367) | ≤ 21.3 | – | – | – | – | –
– | XmAb14045: Fc domain-containing bispecific antibody stimulating T cell-mediated killing of CD123+ cells | – | 149 | strongly activated T cells | over 99% | < 1 | < 1
